Results published in PubChem BioAssay AID1555 (Sanford-Burnham Center for Chemical Genomics, 2009).

System: human liver microsomes, LC/MS/MS parent remaining, 60 min
Experiment: human hepatic microsomal compound turnover – biochemical, ADME assay, late-stage follow-up (AID 1555)
Settings: at 1 µM, stronger effect = lower value

percent remaining: 47%
percent remaining (measured here: remaining without NADPH control): 100%
Structure (SMILES): C=CCn1c(SCC(=O)c2ccc(O)c(O)c2)nnc1-c1ccccc1OC
